Laboratory results published in ChEMBL document CHEMBL5291721, “A preclinical secondary pharmacology resource illuminates target-adverse drug reaction associations of marketed drugs” (Nat Commun, 2023).

Experiments:
[1] = target: T1, Corticotropin-releasing factor receptor 2 (Homo sapiens, UniProt Q13324)
T1 sequence (Q13324 whole entry): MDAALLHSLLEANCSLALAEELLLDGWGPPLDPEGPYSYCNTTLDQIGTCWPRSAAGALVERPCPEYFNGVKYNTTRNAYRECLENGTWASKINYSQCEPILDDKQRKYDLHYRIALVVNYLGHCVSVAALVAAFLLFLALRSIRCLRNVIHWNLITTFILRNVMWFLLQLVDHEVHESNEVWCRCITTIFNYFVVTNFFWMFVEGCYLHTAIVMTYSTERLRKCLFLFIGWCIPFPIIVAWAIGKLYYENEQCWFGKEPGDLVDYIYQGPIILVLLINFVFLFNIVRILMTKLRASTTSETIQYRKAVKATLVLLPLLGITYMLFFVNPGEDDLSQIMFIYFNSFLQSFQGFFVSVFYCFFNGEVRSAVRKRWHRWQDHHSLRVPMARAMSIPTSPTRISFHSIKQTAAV

[2] = target: Glucagon receptor (Homo sapiens, UniProt P47871)
[3] = target: T2, Gastric inhibitory polypeptide receptor (Homo sapiens, UniProt P48546)
T2 sequence (P48546 whole entry): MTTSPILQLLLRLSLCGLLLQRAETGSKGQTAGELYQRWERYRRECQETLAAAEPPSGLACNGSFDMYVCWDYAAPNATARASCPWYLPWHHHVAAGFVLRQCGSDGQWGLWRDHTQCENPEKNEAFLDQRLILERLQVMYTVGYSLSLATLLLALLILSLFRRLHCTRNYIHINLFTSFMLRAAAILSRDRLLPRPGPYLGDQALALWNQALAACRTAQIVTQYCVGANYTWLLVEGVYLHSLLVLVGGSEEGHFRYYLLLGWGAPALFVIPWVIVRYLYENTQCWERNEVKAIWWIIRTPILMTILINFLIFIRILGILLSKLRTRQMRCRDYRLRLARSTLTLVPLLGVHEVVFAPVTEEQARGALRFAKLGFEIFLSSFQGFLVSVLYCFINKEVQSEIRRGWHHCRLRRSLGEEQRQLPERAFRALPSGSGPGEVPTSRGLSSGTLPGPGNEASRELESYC

[4] = target: T3, Neuropeptide Y receptor type 2 (Homo sapiens, UniProt P49146)
T3 sequence (P49146 whole entry): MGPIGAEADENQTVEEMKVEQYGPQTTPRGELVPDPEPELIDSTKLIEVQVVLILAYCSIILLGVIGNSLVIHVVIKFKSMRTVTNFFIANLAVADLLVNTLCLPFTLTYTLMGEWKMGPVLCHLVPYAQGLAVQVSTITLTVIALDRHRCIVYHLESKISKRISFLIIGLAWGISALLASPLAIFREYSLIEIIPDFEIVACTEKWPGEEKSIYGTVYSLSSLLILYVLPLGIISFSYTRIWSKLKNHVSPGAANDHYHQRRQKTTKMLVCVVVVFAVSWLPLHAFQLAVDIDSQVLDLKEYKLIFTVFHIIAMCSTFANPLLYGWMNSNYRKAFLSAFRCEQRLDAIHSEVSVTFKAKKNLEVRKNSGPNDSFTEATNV

[5] = target: T4, Alpha-2A adrenergic receptor (Homo sapiens, UniProt P08913)
T4 sequence (P08913 whole entry): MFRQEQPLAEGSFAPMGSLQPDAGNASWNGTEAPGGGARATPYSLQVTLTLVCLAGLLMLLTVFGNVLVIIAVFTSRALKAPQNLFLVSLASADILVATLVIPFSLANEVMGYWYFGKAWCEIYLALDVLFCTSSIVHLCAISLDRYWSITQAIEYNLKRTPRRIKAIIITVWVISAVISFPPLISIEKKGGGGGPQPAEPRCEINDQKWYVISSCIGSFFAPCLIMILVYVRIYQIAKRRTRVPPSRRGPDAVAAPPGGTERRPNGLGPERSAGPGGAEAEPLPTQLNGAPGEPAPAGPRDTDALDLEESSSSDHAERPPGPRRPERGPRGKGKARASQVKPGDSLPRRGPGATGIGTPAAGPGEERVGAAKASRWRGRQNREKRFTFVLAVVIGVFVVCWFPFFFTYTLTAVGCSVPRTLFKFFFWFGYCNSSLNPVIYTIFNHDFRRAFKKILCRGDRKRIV

[6] = target: T5, Adenosine receptor A1 (Homo sapiens, UniProt P30542)
T5 sequence (P30542 whole entry): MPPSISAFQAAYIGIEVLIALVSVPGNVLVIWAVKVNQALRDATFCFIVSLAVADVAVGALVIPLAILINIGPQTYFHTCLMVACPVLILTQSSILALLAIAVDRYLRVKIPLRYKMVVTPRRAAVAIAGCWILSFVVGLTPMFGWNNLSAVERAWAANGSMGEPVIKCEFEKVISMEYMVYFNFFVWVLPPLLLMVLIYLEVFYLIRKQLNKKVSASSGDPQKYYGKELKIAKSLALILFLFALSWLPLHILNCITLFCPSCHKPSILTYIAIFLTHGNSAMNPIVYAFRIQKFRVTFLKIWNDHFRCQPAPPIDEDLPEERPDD

[7] = target: Sodium-dependent serotonin transporter (Homo sapiens, UniProt P31645)
[8] = target: Gamma-aminobutyric acid receptor subunit alpha-1/alpha-2/beta-2/gamma-2 (Homo sapiens, UniProt P14867+P18507+P47869+P47870); assay type: functional, cell-based
Also: assay procedure not described here.

Chain of Glucagon receptor (P47871 whole entry): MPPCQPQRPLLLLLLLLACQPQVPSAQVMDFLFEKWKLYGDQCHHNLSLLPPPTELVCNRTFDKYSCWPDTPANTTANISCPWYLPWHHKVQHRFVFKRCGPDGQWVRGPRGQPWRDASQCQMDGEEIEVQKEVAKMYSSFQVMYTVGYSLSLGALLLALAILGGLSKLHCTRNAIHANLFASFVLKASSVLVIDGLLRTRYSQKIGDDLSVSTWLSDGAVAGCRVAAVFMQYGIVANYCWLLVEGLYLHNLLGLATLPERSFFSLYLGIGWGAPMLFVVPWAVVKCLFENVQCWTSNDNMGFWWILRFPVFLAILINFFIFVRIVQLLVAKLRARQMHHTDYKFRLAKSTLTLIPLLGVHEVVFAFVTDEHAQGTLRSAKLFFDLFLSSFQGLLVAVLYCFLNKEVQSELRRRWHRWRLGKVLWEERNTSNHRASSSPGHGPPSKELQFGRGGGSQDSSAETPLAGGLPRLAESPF
Chain of Sodium-dependent serotonin transporter (P31645 whole entry): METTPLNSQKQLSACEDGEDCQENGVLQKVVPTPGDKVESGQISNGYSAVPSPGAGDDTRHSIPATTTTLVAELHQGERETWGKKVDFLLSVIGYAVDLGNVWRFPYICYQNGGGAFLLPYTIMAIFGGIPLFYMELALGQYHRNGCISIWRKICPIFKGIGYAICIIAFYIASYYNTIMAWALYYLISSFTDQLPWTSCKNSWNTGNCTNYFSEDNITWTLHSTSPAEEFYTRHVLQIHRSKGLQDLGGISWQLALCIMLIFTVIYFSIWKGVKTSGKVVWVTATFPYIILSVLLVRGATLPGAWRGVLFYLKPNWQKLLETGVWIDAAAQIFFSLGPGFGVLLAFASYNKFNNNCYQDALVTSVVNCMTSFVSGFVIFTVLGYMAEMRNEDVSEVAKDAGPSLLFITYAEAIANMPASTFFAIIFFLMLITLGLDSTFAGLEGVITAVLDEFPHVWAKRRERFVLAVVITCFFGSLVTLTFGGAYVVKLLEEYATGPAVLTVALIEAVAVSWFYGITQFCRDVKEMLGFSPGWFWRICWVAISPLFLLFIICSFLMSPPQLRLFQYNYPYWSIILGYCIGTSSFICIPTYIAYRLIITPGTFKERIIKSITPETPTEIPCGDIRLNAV
Chain of Gamma-aminobutyric acid receptor subunit alpha-1/alpha-2/beta-2/gamma-2 (P14867 whole entry): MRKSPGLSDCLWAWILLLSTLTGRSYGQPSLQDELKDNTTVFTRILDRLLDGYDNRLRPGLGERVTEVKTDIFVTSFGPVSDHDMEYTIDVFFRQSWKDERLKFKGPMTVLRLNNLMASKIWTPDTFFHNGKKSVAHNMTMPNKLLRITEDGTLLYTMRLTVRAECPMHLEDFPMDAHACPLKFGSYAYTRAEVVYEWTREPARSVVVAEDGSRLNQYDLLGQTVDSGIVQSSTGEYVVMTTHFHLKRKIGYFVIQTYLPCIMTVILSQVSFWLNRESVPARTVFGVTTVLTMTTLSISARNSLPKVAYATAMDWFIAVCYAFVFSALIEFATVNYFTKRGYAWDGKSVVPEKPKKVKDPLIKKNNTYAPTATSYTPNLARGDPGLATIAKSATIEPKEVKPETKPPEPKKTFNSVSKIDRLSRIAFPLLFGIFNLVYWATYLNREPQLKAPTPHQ
Chain of Gamma-aminobutyric acid receptor subunit alpha-1/alpha-2/beta-2/gamma-2 (P47870 whole entry): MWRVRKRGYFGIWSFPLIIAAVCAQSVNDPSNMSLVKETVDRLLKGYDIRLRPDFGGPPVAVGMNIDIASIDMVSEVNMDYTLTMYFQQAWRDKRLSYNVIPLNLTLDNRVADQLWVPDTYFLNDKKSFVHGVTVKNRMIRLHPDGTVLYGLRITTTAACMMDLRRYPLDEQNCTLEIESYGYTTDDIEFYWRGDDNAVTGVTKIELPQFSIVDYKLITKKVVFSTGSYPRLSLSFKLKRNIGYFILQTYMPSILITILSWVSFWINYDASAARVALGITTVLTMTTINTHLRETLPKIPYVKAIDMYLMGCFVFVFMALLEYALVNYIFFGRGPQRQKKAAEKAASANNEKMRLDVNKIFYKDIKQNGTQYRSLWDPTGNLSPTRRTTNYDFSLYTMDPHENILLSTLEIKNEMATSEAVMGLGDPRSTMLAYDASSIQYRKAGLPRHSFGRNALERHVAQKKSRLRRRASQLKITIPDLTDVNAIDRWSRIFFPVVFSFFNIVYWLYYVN
Chain of Gamma-aminobutyric acid receptor subunit alpha-1/alpha-2/beta-2/gamma-2 (P18507 whole entry): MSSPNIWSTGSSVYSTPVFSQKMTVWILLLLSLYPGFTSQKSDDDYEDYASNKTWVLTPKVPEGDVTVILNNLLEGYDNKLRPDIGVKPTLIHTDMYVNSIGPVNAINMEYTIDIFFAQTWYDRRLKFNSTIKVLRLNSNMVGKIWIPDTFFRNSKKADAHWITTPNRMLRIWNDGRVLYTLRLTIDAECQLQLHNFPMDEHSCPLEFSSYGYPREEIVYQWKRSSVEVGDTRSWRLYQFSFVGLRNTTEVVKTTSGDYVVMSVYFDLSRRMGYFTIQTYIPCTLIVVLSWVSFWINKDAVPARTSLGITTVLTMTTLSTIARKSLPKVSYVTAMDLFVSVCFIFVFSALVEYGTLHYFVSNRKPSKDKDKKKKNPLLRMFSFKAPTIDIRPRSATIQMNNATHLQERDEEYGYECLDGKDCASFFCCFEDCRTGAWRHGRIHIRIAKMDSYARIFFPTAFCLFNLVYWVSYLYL
Chain of Gamma-aminobutyric acid receptor subunit alpha-1/alpha-2/beta-2/gamma-2 (P47869 whole entry): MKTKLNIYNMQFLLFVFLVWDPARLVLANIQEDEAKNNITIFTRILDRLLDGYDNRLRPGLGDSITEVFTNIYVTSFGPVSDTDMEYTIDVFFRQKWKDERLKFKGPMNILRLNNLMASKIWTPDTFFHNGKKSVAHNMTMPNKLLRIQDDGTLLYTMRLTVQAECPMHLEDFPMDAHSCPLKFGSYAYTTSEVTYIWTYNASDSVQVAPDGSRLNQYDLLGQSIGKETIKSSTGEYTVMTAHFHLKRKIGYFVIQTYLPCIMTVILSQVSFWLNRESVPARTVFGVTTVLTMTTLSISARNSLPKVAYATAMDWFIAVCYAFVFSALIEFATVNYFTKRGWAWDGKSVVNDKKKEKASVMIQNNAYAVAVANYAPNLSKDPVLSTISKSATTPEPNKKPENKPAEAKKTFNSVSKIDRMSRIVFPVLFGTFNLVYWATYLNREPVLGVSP

CC(CCc1ccc(O)cc1)NCCc1ccc(O)c(O)c1 (centres undefined) [DOBUTAMINE]
AC50 [1]: > 30 µM
AC50 [2]: > 30 µM
AC50 [3]: > 30 µM
AC50 [4]: > 30 µM
AC50 [5]: 10.8 µM

CC(=O)O[C@]1(C(C)=O)CC[C@H]2[C@@H]3C=C(Cl)C4=CC(=O)CC[C@]4(C)[C@H]3CC[C@@]21C [CHLORMADINONE ACETATE]
AC50 [6]: > 30 µM

C=CCSCC1Nc2cc(Cl)c(S(N)(=O)=O)cc2S(=O)(=O)N1 (centres undefined) [ALTHIAZIDE]
AC50 [7]: > 30 µM

CN1CCN(C2=Nc3ccccc3Oc3ccc(Cl)cc32)CC1 [LOXAPINE]
AC50 [1]: > 30 µM
AC50 [2]: > 30 µM
AC50 [3]: > 30 µM
AC50 [4]: > 30 µM

O=[N+]([O-])c1ccc(O)c2ncccc12 [NITROXOLINE]
AC50 [6]: > 30 µM
AC50 [8]: > 30 µM
AC50 [7]: > 30 µM

COc1cc(N2CCC(N3CCN(C)CC3)CC2)ccc1Nc1ncc(Cl)c(Nc2ccccc2P(C)(C)=O)n1 [BRIGATINIB]
AC50 [7]: > 30 µM

CCCc1nc(C(C)(C)O)c(C(=O)O)n1Cc1ccc(-c2ccccc2-c2nnn[nH]2)cc1 [OLMESARTAN]
AC50 [7]: > 30 µM

c1ccc2c(c1)CCc1ccccc1N2C1CN2CCC1CC2 (centres undefined) [QUINUPRAMINE]
AC50 [7]: 0.507 µM

C=C1CC[C@H](O)C/C1=C/C=C1\CCC[C@]2(C)[C@@H]([C@H](C)/C=C/[C@H](C)C(C)C)CC[C@@H]12 [ERGOCALCIFEROL]
AC50 [6]: > 30 µM

Cc1cc(N)c2ccccc2[n+]1CCCCCCCCCC[n+]1c(C)cc(N)c2ccccc21
AC50 [7]: 0.185 µM

CCOC(=O)N1CSC[C@H]1C(=O)O [TELMESTEINE]
AC50 [7]: > 30 µM

CCC(=O)O[C@]1(C(=O)SCF)[C@H](C)C[C@H]2[C@@H]3C[C@H](F)C4=CC(=O)C=C[C@]4(C)[C@@]3(F)[C@@H](O)C[C@@]21C [FLUTICASONE PROPIONATE]
AC50 [1]: > 30 µM
AC50 [2]: > 30 µM
AC50 [3]: > 30 µM
AC50 [4]: > 30 µM
AC50 [5]: > 10 µM

CCC[C@H](NC(=O)[C@@H]1[C@H]2CCC[C@H]2CN1C(=O)[C@@H](NC(=O)[C@@H](NC(=O)c1cnccn1)C1CCCCC1)C(C)(C)C)C(=O)C(=O)NC1CC1
AC50 [5]: > 10 µM

CC1=CCC(C(C)(C)O)CC1O (centres undefined) [SOBREROL]
AC50 [7]: > 30 µM

NCC(CC(=O)O)c1ccccc1 (centres undefined) [PHENIBUT]
AC50 [7]: > 30 µM

CN1C(=O)/C(=N\NC(N)=S)c2ccccc21 [METHISAZONE]
AC50 [7]: > 30 µM

CCOC(=O)[C@H](CCc1ccccc1)N[C@@H](C)C(=O)N(CC(=O)O)C1Cc2ccccc2C1
AC50 [6]: > 30 µM
AC50 [7]: > 30 µM

CC[C@@H]([C@H](C)O)n1ncn(-c2ccc(N3CCN(c4ccc(OC[C@@H]5CO[C@@](Cn6cncn6)(c6ccc(F)cc6F)C5)cc4)CC3)cc2)c1=O [POSACONAZOLE]
AC50 [6]: > 30 µM

Cc1ncc(COP(=O)(O)O)c(C=O)c1O [PYRIDOXAL PHOSPHATE ANHYDROUS]
AC50 [7]: > 30 µM

C[C@H](Cc1cc2c(c(C(N)=O)c1)N(CCCO)CC2)NCCOc1ccccc1OCC(F)(F)F [SILODOSIN]
AC50 [7]: > 30 µM
